Assay results reported in patent US6900225B2, “Quinolonecarboxylic acid derivative” (Daiichi Pharmaceutical Co., Ltd., priority 2001, dated 2005).
Converted amounts (≈) assume the structure as drawn. “Also recorded” adds a separate entry of the source. Counter-ions that a name gives are not always drawn.

Tests used:
[1] = tested on: S. epidermidis, 56500; test: Antibacterial activity (MIC), Japanese Society of Chemotherapy standard method; assay type: cell-based; details: Staphylococcus epidermidis
Protocol: (§1) Antibacterial activity was investigated by comparing compound (1) with comparative compounds B and C (see next page). This test was performed according to the standard method recommended by Japanese Society of Chemotherapy.

[2] = tested on: S. aureus, 209P; test: as above; assay type: cell-based; details: Staphylococcus aureus
Protocol: as §1

[3] = tested on: E. coli, NIHJ; test: as above; assay type: cell-based; details: Escherichia coli
Protocol: as §1

[4] = tested on: Ps. aeruginosa, 32104; test: as above; assay type: cell-based; details: Pseudomonas aeruginosa
Protocol: as §1

[5] = tested on: Pr. vulgaris, 08601; test: as above; assay type: cell-based; details: Proteus vulgaris
Protocol: as §1

[6] = tested on: Str. faecalis, ATCC 19433; test: as above; assay type: cell-based; details: Enterococcus faecalis, ATCC19433
Protocol: as §1

[7] = tested on: Ser. marcescens, 10100; test: as above; assay type: cell-based; details: Serratia marcescens
Protocol: as §1

[8] = tested on: Ps. aeruginosa, 32121; test: as above; assay type: cell-based; details: Pseudomonas aeruginosa
Protocol: as §1

[9] = Stability of acid addition salts of compound (1a) under various levels of humidity; details: high-humidity conditions
[10] = tested on: Slc:ddY mice; test: Central toxicity after cisternal administration, alone or combined with biphenylacetic acid; assay type: in vivo; details: 5 μg/mouse
Protocol: Slc:ddY mice (male; 3 weeks old) were used in groups of ten. Compound (1) was dissolved in distilled water in order to prepare injections, and the resultant solution was cisternally administered in a volume of […]. To the members of the group where compound (1) and biphenylacetic acid were used in combination, biphenylacetic acid (400 mg/kg) was perorally administered first, and 30 minutes following the administration, compound (1) was cisternally administered in a manner similar to that employed for the single use of compound (1).

[11] = tested on: methicillin-resistant Staphylococcus aureus (MRSA) strain 7866; test: Infection-preventing effect on mouse sepsis model (MRSA); assay type: in vivo; details: Slc:ddY mice, intraperitoneal MRSA 7866 1.07×10^8 CFU/mouse, single tail vein injection
Protocol: (§2) Groups of Slc:ddY mice, each group consisting of 7 mice, were used in the test. The mice were intraperitoneally inoculated with methicillin-resistant Staphylococcus aureus (MRSA) strain 7866 (1.07×10^8 CFU/mouse) or E. coli strain E77156 (8.08×10^7 CFU/mouse). Compound (1) was given as a single injection into the tail vein of each mouse immediately after infection. On the basis of the survival count on day 7 after infection, 50% efficacy was calculated using the probit method, to thereby evaluate the efficacy.

[12] = Storage stability for one week (heat, humidity, light), residual amount by liquid chromatography; assay type: physicochemical
Protocol: Compound (1) (1.5 mg) was stored for one week under the following conditions: (1) in a sealed bottle at 70° C., (2) in an open-air state at 50° C., 75% RH (NaCl), or (3) irradiation with light at 100,000 lx·h (2,500 lx×40 h). Subsequently, the residual amount of compound (1) was quantitatively determined by means of liquid chromatography.

[13] = Solubility in water; assay type: physicochemical
Description: Solubility of compound (1) in water was investigated.

[14] = tested on: arthrodial cartilage of young beagles; test: Articular toxicity in young beagles, peroral for eight days; assay type: in vivo; details: 7.5 mg/kg, 15 mg/kg and 30 mg/kg
Description: Groups of young beagles (male; 3-4 months old), each group consisting of 3 dogs, were used in the test. Compound (1) was perorally administered to each dog for eight days. Thereafter, important diarthroses were pathologically examined. […] Thus, articular toxicity of compound (1) is quite weak and insignificant, proving that compound (1) is a very safe compound.

[15] = tested on: E. coli strain E77156; test: Infection-preventing effect on mouse sepsis model (E. coli); assay type: in vivo; details: Slc:ddY mice, intraperitoneal E. coli E77156 8.08×10^7 CFU/mouse, single tail vein injection
Protocol: as §2

[16] = tested on: Balb/c mice; test: Phototoxicity: intravenous administration, then UV-A exposure; assay type: in vivo; details: intravenous 100 mg/kg, UV-A 20 J/cm^2 for four hours
Protocol: Groups of Balb/c mice (female; 5 weeks old), each group consisting of 5-6 mice, were used in the test. After compound (1) was intravenously administered to each mouse, the mouse was exposed to long-wavelength UV light (UV-A) (20 J/cm^2) for four hours. Thereafter, the auricle was visually observed for 96 hours. Subsequently the mouse was sacrificed for examination of the tissue. […] Thus, compound (1) is a very safe compound, being free from phototoxicity, which is often observed with quinolone-based antibacterial agents.

[17] = tested on: pneumococcus SPI-13; test: Therapeutic effect on mouse pneumonia model with pneumococcus of low penicillin sensitivity; assay type: in vivo; details: CBA/J mice
Protocol: Groups of CBA/J mice, each group consisting of 5 mice, were used in the test. The mice were nasally infected with pneumococcus SPI-13 at 5.3×10^6 CFU/mouse. Compound (1) was subcutaneously administered to each mouse at doses of 7.5 mg/kg, 15 mg/kg, or 30 mg/kg, for three consecutive days from the day following infection, twice a day at an interval of 6 hours. The efficacy of compound (1) was assessed by counting the number of the intrapulmonary bacteria on the day following the final administration.

[18] = Moisture absorption/desorption (moisture absorption analyzer, weight change at 5-95% RH); assay type: physicochemical; details: 25° C., relative humidity 5-95% RH; monohydrochloride monohydrate
Protocol: Moisture absorption/desorption of compound (1) was investigated by using samples each weighing approximately 10 mg and a moisture absorption analyzer manufactured by VTI (model SGA-100). The measurement was performed at 25° C., and the relative humidity was changed in the range of 5% to 95% at intervals of 5% or 10%. When the weight change of a sample is 0.03% or less within 30 minutes, the sample is considered to be in a state of equilibrium, and in this test, the longest equilibrium time was set to be 180 minutes. The weight change of each sample at different relative humidities was determined.

[19] = combined: biphenylacetic acid 400 mg/kg perorally 30 minutes before cisternal administration
[20] = solo cisternal administration, groups of ten

| SMILES | MIC [1] [µg/mL] | MIC [2] [µg/mL] | MIC [3] [µg/mL] | MIC [4] [µg/mL] | MIC [5] [µg/mL] | MIC [6] [µg/mL] | MIC [7] [µg/mL] | MIC [8] [µg/mL] | Death [10, 19] | Death [10, 20] | Spasm [10, 20] | other results |
| --- | --- | --- | --- | --- | --- | --- | --- | --- | --- | --- | --- | --- |
| CCOc1c(N2CC(C)C(N)C2)c(F)cc2c(=O)c(C(=O)O)cn([C@@H]3C[C@@H]3F)c12 (stereo partly shown) [Comparative Compound C] | 0.2 (≈ 0.491 µM) | 0.05 (≈ 0.123 µM) | 0.025 (≈ 0.0614 µM) | 0.78 (≈ 1.91 µM) | 0.05 (≈ 0.123 µM) | 0.39 (≈ 0.957 µM) | 0.2 (≈ 0.491 µM) | 0.39 (≈ 0.957 µM) |  |  |  |  |
| CCOc1c(N2C[C@@H](N)C3(CC3)C2)c(F)cc2c(=O)c(C(=O)O)cn([C@@H]3C[C@@H]3F)c12 [Comparative Compound B] | 0.1 (≈ 0.238 µM) | 0.025 (≈ 0.0596 µM) | 0.006 (≈ 0.0143 µM) | 0.39 (≈ 0.93 µM) | 0.05 (≈ 0.119 µM) | 0.2 (≈ 0.477 µM) | 0.2 (≈ 0.477 µM) | 0.2 (≈ 0.477 µM) |  |  |  |  |
| COc1c(N2C[C@@H](N)C3(CC3)C2)c(F)cc2c(=O)c(C(=O)O)cn([C@@H]3C[C@@H]3F)c12.CS(=O)(=O)O [methanesulfonic acid salt, Methanesulfonic Acid Salt of (−)-7-{(7S)-7-amino-5-azaspiro[2.4]heptan-5-yl}-6-fluoro-1-[(1R, 2S)-2-fluoro-1-cyclopropyl]-1,4-dihydro-8-methoxy-4-oxo-3-quinolinecarboxylic acid] |  |  |  |  |  |  |  |  |  |  |  | Stability under various levels of humidity [9]: tendency toward moisture absorption |
| COc1c(N2C[C@@H](N)C3(CC3)C2)c(F)cc2c(=O)c(C(=O)O)cn([C@@H]3C[C@@H]3F)c12 [Compound (1), (−)-7-[(7S)-7-amino-5-azaspiro[2.4]heptan-5-yl]-6-fluoro-1-[(1R, 2S)-2-fluoro-1-cyclopropyl]-1,4-dihydro-8-methoxy-4-oxo-3-quinolinecarboxylic acid monohydrochloride monohydrate] | 0.05 | 0.006 | ≤ 0.003 | 0.2 | 0.012 | 0.1 | 0.05 | 0.05 | neither spasm nor death | neither spasm nor death | neither spasm nor death | Spasm [10, 19]: neither spasm nor death; 50% efficacy (probit method, survival count on day 7) [11]: 3.34 mg/kg; Stability when exposed to light, compared with compound No. 26bb ([12]; light 100,000 lx·h (2,500 lx×40 h)): superior to that of compound No. 26bb; Stability (residual amount by liquid chromatography) ([12]; one week: sealed bottle 70° C., open 50° C., 75% RH, light 100,000 lx·h): remained stable, not undergoing any decomposition; solubility [13]: ≥ 100 mg/mL; Formation of blebs or erosions in arthrodial cartilage [14]: not at all observed; 50% efficacy (probit method, survival count on day 7) [15]: 0.57 mg/kg; Phototoxicity: abnormality of auricle (visual observation 96 hours, tissue examination) [16]: no abnormality was observed; Number of intrapulmonary bacteria ([17]; subcutaneous 7.5 mg/kg twice a day for three days): approximately half that of the control; Number of intrapulmonary bacteria ([17]; subcutaneous 15 mg/kg twice a day for three days): below the detection limit; Number of intrapulmonary bacteria ([17]; subcutaneous 30 mg/kg twice a day for three days): below the detection limit; Moisture absorption/desorption (weight change) [18]: neither absorbing or desorbing moisture; also recorded: do not absorb or desorb moisture |
| COc1c(N2C[C@@H](N)[C@@H](C)C2)c(F)cc2c(=O)c(C(=O)O)cn([C@@H]3C[C@@H]3F)c12 [Comparative Compound A, reference compound] |  |  |  |  |  |  |  |  | two | one | two |  |
